Data on seven molecules can be found in PMC7072677, “Arachidonoylcholine and Other Unsaturated Long-Chain Acylcholines Are Endogenous Modulators of the Acetylcholine Signaling System” (Biomolecules, 2020).

As a reminder, the IC50 is the point on the concentration scale where inhibition reaches its midpoint. Usually Ki stands for a measure of affinity in units of concentration, obtained from inhibition or displacement.

The target in data set [1] is T1, human erythrocyte AChE (Homo sapiens, UniProt P22303). The data set is described as follows: Hydrolysis of the substance by AChE (HPLC). In kind it is in vitro ADME. As to conditions: 1 mM substance, 0.02 U/mL enzyme, pH 7.5, 25 °C, 40 min. The method, then: (§1) AChE and BChE hydrolysis of AA-CHOL was determined in 100 mM phosphate buffer, pH 7.5 at 25 °C, the AA-CHOL concentration was 1 mM, the incubation time was 40 min. The enzyme concentrations were 0.02 U/mL in the sample. The reverse phase HPLC method was used to estimate the hydrolysis of AA-CHOL. As a control, acetylthiocholine iodide (ATCh) hydrolysis was determined in the same conditions.
T1 sequence (P22303 32-617 isoform P22303-2 limits assumed): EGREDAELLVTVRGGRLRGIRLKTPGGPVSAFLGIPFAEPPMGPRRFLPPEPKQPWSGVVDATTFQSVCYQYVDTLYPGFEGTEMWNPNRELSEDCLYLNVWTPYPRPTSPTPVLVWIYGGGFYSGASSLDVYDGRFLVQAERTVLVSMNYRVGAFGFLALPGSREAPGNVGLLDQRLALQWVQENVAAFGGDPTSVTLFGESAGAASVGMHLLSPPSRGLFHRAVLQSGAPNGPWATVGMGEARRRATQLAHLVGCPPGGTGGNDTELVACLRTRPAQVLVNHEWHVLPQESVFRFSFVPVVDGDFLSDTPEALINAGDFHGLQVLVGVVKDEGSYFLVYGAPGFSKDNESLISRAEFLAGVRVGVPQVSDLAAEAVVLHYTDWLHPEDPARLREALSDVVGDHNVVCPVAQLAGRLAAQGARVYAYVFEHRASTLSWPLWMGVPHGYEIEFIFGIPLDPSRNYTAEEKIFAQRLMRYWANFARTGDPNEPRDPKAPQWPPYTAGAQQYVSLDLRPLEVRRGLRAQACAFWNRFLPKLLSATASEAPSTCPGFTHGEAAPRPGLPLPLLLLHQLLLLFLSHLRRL

The subject of data set [2] is A549 lung cancer cells. The settings on record: for decrease of A549 viability: 100 μM, 24 h incubation, MTT; for decrease of cell viability, dose-dependent, maximum: A549 lung cancer cells.
Data set [3] concerns the target T2, equine serum BChE (Equus caballus, UniProt P81908). The data set is described as follows: biochemical. As to conditions: for IC50: 10 min preincubation, ATCh 1 mM, N = 11, read-out: BChE IC50, inhibition of ATCh hydrolysis.
Data set [4] has as its system mouse forelimb grip strength. The data set is described as follows: In vivo myorelaxant activity, forelimb grip strength. The settings on record: mice.
Data set [5] addresses T1, human erythrocyte AChE. As to the kind of experiment: biochemical. The settings on record: for IC50: 10 min preincubation, ATCh 1 mM, N = 11, read-out: AChE IC50, inhibition of ATCh hydrolysis.
The target in data set [6] is T2, equine serum BChE. As to the kind of experiment: Hydrolysis of the substance by BChE (HPLC). Format: in vitro ADME, horse. As to conditions: 1 mM substance, 0.02 U/mL enzyme, pH 7.5, 25 °C. The method, then: as §1
The test system of data set [7] is sea urchin Strongylocentrotus droebachiensis and S. purpuratus embryo. Also on record: method as in PMID 11443948. The settings on record: quenched by QX-222; cited from earlier work.
For the next data set, the target named is T3, α7 nAChR (Homo sapiens, UniProt P36544).
T3 construct: SH-SY5Y cells endogenously expressing α7 nAChR; host or cells: SH-SY5Y
T3 sequence (P36544 23-502): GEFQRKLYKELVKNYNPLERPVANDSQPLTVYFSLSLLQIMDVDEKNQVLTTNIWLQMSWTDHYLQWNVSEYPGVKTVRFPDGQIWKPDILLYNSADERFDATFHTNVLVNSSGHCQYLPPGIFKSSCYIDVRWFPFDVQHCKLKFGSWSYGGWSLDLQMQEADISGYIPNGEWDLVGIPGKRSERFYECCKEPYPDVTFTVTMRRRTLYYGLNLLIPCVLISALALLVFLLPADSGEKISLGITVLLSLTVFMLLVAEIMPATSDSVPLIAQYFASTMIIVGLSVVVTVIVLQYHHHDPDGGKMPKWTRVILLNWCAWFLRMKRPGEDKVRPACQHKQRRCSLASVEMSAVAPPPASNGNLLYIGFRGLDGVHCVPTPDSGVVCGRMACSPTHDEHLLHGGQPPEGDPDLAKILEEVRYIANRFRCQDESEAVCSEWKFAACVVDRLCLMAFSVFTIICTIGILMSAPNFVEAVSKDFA
The data set is described as follows: Ca2+ mobilization (agonist test) in SH-SY5Y cells. In kind it is cell-based. How it is done: Cells were cultured for two days at 37 °C on black 96-well plates. Immediately before the experiments, cells were incubated with […] Fluo-4AM ester reagent and 1.25 mM probenecid (organic anion transporter inhibitor) for 1 h at room temperature. After the incubation, the cells were washed out with the extracellular solution (140 mM NaCl, 2 mM CaCl2, 2.8 mM KCl, 4 mM MgCl2, 20 mM HEPES, 10 mM glucose; pH 7.4). The last washout was supplied with 10 uM α7 nAChR positive allosteric modulator PNU 120596 and tested compound. The excitation of Fluo-4 achieved at 485 nm and fluorescence registered at 535 nm using Hidex Sense Beta Plus (Turku, Finland) multi-well plate fluorimeter. The calcium rise amplitude was measured from the base level of each well.
(Calcium flux is commonly read through the fluorescence of an indicator in the cells.)

Another data set concerns the target T4, α1β3γ2 GABAAR (Mus musculus, UniProt P62812+P63080).
T4 construct: expressed in transfected cells; host or cells: Xenopus oocytes, cDNA in PCI vector
The data set is described as follows: Electrophysiology, GABA-evoked currents in Xenopus oocytes. Format: cell-based. The settings on record: up to a concentration of 10 μM.

For the next data set, the target named is T5, mouse muscle nAChR (Mus musculus, UniProt P02716+P04756+P20782).
T5 construct: expressed in transfected cells; host or cells: Xenopus laevis oocytes, cDNA in pRBG4
T5 sequence (P04756 21-457): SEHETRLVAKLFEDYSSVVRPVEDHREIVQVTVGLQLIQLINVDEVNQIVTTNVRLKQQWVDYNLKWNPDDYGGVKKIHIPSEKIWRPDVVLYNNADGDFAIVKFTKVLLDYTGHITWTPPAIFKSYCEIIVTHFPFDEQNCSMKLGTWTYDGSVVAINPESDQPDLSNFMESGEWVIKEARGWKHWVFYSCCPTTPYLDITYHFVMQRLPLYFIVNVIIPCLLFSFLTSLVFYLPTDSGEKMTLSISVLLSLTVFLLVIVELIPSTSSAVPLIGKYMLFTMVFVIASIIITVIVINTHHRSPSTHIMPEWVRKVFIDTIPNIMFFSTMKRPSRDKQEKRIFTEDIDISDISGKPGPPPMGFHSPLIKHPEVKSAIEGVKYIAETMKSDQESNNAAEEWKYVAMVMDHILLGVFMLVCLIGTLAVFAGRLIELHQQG
T5 sequence (P09690 24-501 partner): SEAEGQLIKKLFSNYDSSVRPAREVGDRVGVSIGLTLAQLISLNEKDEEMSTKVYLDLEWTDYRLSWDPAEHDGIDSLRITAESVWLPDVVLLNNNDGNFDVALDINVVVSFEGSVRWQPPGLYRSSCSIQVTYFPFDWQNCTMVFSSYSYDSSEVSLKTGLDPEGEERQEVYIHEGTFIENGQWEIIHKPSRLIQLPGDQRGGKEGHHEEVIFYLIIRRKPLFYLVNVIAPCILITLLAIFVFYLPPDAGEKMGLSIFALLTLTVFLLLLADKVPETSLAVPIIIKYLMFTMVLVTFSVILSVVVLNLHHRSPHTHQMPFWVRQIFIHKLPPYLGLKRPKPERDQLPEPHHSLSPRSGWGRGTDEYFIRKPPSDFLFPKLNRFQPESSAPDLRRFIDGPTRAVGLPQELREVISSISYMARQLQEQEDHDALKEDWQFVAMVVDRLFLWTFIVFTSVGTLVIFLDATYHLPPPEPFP
T5 sequence (P02716 25-520): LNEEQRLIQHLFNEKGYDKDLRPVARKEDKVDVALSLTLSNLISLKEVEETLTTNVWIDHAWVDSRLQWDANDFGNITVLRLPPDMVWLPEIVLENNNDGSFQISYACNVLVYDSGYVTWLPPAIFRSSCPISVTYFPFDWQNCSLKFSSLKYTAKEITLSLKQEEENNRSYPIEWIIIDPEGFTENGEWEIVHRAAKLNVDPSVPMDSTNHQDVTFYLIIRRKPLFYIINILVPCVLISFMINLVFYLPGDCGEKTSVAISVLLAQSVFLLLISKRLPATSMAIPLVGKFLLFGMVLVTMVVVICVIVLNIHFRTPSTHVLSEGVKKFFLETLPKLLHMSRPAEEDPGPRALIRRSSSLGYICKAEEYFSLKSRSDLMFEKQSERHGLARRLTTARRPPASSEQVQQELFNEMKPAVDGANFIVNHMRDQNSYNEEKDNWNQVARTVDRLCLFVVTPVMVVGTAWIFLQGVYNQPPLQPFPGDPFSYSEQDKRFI
T5 sequence (P20782 21-493): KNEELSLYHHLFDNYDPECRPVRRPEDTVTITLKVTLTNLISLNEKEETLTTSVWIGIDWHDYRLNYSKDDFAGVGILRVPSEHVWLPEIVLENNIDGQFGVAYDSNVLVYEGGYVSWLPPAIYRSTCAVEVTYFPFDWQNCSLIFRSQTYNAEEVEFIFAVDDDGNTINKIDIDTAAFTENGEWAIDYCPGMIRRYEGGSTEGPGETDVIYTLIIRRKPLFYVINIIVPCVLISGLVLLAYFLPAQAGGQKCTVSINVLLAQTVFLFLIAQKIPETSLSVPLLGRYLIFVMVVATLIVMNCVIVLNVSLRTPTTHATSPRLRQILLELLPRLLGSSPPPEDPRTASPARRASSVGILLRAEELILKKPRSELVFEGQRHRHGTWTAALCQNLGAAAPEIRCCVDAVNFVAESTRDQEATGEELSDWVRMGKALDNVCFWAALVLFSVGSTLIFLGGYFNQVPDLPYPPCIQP
The data set is described as follows: Two-electrode electrophysiology, ACh-evoked current in Xenopus oocytes. In kind it is cell-based.

The test system of a further data set is A549 cells. As to the kind of experiment: Caspase activation and apoptosis staining in A549 cells. Format: cell-based. As to conditions: A549, 150 μM.
Data set [8] concerns A549 lung cancer cells. The settings on record: 1 to 10 µM, predominantly after 48 and 72 h; cited from earlier work.

“Also recorded” adds a separate entry of the source. Like-named read-outs stand apart in the source and are kept apart here. Some results are limits rather than exact numbers.

T2 sequence (P81908 whole entry): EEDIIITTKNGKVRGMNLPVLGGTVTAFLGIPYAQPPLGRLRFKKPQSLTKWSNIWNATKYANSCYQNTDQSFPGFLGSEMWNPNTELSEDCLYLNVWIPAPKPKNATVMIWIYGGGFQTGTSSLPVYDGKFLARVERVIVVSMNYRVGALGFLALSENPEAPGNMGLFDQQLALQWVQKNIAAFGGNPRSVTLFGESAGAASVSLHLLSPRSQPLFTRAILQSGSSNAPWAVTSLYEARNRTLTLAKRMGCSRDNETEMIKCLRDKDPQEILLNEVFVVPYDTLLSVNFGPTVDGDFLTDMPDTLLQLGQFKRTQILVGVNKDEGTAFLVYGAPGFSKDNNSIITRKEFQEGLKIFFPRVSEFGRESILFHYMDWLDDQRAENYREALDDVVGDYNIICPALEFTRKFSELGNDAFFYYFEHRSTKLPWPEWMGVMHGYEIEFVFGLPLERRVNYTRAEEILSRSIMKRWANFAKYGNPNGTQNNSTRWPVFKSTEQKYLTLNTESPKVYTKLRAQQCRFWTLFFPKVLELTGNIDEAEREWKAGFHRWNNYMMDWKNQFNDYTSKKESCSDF
T4 sequence (P62812 28-455): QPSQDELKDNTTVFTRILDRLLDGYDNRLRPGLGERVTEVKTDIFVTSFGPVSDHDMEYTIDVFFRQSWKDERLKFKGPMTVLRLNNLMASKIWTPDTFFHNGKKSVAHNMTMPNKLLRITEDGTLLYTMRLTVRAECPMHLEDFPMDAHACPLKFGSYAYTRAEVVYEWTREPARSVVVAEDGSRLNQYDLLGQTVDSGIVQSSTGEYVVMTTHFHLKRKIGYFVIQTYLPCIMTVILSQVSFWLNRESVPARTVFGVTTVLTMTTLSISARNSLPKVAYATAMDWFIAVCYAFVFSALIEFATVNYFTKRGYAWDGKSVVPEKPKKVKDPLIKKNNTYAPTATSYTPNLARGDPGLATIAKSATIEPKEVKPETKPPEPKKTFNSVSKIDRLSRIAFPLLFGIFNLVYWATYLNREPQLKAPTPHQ
T4 sequence (P63080 26-473): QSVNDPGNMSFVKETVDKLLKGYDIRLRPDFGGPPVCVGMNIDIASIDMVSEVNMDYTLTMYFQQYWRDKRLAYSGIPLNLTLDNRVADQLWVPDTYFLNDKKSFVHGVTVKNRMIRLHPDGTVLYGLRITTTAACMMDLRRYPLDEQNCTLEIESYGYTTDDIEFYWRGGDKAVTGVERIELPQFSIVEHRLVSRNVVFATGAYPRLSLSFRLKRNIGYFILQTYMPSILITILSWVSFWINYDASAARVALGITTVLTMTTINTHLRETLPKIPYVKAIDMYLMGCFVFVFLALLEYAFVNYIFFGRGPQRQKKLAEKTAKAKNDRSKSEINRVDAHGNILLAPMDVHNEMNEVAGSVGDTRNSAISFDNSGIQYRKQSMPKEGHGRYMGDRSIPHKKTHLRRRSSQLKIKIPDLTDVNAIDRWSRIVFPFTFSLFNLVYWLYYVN
T4 sequence (P22723 39-474 partner): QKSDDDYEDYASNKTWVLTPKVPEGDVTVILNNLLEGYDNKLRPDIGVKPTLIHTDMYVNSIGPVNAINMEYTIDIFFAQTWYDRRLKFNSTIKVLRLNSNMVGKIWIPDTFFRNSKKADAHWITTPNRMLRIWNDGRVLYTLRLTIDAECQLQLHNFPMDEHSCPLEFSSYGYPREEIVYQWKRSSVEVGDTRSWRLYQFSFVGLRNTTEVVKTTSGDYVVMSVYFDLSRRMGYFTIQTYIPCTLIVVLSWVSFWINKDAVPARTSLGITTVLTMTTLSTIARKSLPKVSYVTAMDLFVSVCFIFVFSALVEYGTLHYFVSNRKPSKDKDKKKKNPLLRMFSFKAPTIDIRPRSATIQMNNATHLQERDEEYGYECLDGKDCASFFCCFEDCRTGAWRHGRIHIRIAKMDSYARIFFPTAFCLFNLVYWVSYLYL

For the molecule `CCCCC/C=C\C/C=C\C/C=C\C/C=C\CCCC(=O)OCC[N+](C)(C)C` [AA-CHOL, Arachidonoylcholine], at human erythrocyte AChE [1], the “hydrolysis by AChE” value was “not hydrolyzed”. In addition, the “decrease of A549 viability” value in the data set with A549 lung cancer cells [2] was 10%. Besides, in the data set with A549 lung cancer cells [2], the “decrease of cell viability, dose-dependent, maximum” value (shortened to “decrease of cell viability”) is “up to 45%”. The concentration for half-maximal inhibition (IC50) is 170 ± 16 µM at equine serum BChE [3], 90 ± 1 µM at human erythrocyte AChE [5] and 3.16 ± 0.26 µM against mouse muscle nAChR. Also, the “type of BChE inhibition” value on equine serum BChE [3] (steady-state kinetics) is “mixed type mechanism; also recorded: mixed-type inhibition”. The “αKi (noncompetitive component), BChE” value at equine serum BChE [3] (steady-state, Lineweaver-Burk) worked out at 214 ± 17 µM. Also, the Ki on equine serum BChE [3] (steady-state, Lineweaver-Burk, read-out: Ki (competitive component), BChE) came to 70.5 ± 6.3 µM; on human erythrocyte AChE [5] (steady-state, Lineweaver-Burk, read-out: Ki (competitive component), AChE) it was 16.7 ± 1.5 µM. Also, the “muscle relaxant effect, grip strength vs control” value was “no differences from the control group; also recorded: no difference from the control; also recorded: does not produce a significant muscle relaxation” in data set [4] (injection into front paws (intramuscular) 0.5, 1 and 4 mg/kg, 15 min to 4 h); “No differences with the respective controls; also recorded: no substance activity” in [4] (subcutaneous injection 10 and 30 mg/kg, up to 240 min). Besides, the “type of AChE inhibition” value at human erythrocyte AChE [5] (steady-state kinetics) is “mixed type mechanism; also recorded: mixed-type inhibition”. Also, on human erythrocyte AChE [5] (steady-state, Lineweaver-Burk), the “αKi (noncompetitive component), AChE” value was found to be 51.4 ± 4.1 µM. The “hydrolysis by BChE” value at equine serum BChE [6] (during 40 min) is reported as “up to 30%”. The “effect on sea urchin larva” value in data set [7] was “dose-dependently induced the larva immobilization and cell lysis”. Besides, the “induction of rise in intracellular Ca2+ (agonistic properties)” value (from here on “induction of rise in intracellular Ca2+”) on α7 nAChR was “showed no agonistic properties”. Moreover, the “functional inhibition of α1β3γ2 GABAAR” value at α1β3γ2 GABAAR was “no functional inhibition”.
Take `CC(=O)SCC[N+](C)(C)C.[I-]` [ATCh, acetylthiocholine iodide, reference compound]: the “hydrolysis by AChE” value on human erythrocyte AChE [1] was “fully hydrolyzed”. For the same molecule, the “hydrolysis by BChE” value at equine serum BChE [6] (40 min) is on record as “fully hydrolyzed”.
Consider `CC/C=C\C/C=C\C/C=C\C/C=C\C/C=C\C/C=C\CCC(=O)OCC[N+](C)(C)C` [DHA-CHOL, docosahexaenoylcholine], for which the “decrease of A549 viability” value in the data set with A549 lung cancer cells [2] was “inactive”. Moreover, the IC50 on equine serum BChE [3] is more than 300 µM. For the same molecule, at human erythrocyte AChE [5], the “AChE inhibitory activity” value is listed as “Neither Ln-CHOL nor DHA-CHOL had noticeable inhibitory activity” and the IC50 was more than 300 µM. In addition, in [7], the “effect on sea urchin larva” value is “dose-dependently induced the larva immobilization and cell lysis”. Moreover, the “induction of rise in intracellular Ca2+” value at α7 nAChR was “showed no agonistic properties”.
In the case of `CCCCC/C=C\C/C=C\CCCCCCCC(=O)OCC[N+](C)(C)C` [Ln-CHOL], in the data set on A549 lung cancer cells [2], the “decrease of A549 viability” value is reported as 10% and the “decrease of cell viability” value is “up to 45%”. Moreover, at equine serum BChE [3], the IC50 is more than 300 µM. Besides, on human erythrocyte AChE [5], the “AChE inhibitory activity” value is “Neither Ln-CHOL nor DHA-CHOL had noticeable inhibitory activity” and the IC50 was more than 300 µM. Also, the “induction of rise in intracellular Ca2+” value at α7 nAChR is recorded as “showed no agonistic properties”.
Take `CN1CCC[C@H]1c1cccnc1` [Nicotine, reference compound]: in the data set on A549 lung cancer cells [2] (15 μM), the “effect on A549 proliferation” value is given as “slightly decreased”. Besides, the “effect on the cytotoxicity of Ol-CHOL” value in the data set with A549 lung cancer cells [2] (A549, 90 or 100 μM of Ol-CHOL) is given as “did not affect the cytotoxicity”.
With `CCCCCCCC/C=C\CCCCCCCC(=O)OCC[N+](C)(C)C` [Ol-CHOL], in the data set with A549 lung cancer cells [2], the “decrease of A549 viability” value is reported as 45% and the “decrease of cell viability” value is listed as “up to 45%”. Also, the “phosphatidylserine exposure on the membrane” value in the data set with A549 cells was “phosphatidylserine exposure on the membrane”. Moreover, in the data set with A549 cells (5 h), the “caspase 3 activation” value is reported as “activation”, the “caspase 8 activation” value was “not caspase 8 activation” and the “caspase 9 activation” value was “activation”.
With `CCN1C[C@]2(COC(=O)c3ccccc3N3C(=O)C[C@H](C)C3=O)CC[C@H](OC)[C@@]34[C@@H]5C[C@H]6[C@H](OC)[C@@H]5[C@](O)(C[C@@H]6OC)[C@@](O)([C@@H](OC)[C@H]23)[C@@H]14` [methyllycaconitine, reference compound], the “effect on A549 proliferation” value in the data set on A549 lung cancer cells [2] (up to the concentration of 10 μM) was “did not affect”. Further, in the data set with A549 lung cancer cells [8], the “effect on proliferation of the A549 cells” value is recorded as “inhibits the proliferation”.
